The NIST ThermoML archive (doi:10.1021/acs.jced.9b00752)

Assay: mn = molality of the nth substance listed, in mol/kg
Conditions: 100 kPa, Liquid, Vibrating tube method

O=C(O)[C@@H]1CCCN1 [L-proline] + O
mass density [kg/m3]
Conditions	278.65 K	279.15 K	279.65 K	280.15 K	280.65 K	281.15 K	281.65 K	282.15 K	282.65 K	283.15 K
m1 = 0.0132	1000.41	1000.39	1000.38	1000.35	1000.33	1000.3	1000.27	1000.23	1000.19	1000.15
m1 = 0.0326	1001.08	1001.06	1001.04	1001.02	1000.99	1000.97	1000.93	1000.89	1000.85	1000.81
m1 = 0.0542	1001.81	1001.79	1001.77	1001.75	1001.72	1001.69	1001.66	1001.62	1001.57	1001.53
m1 = 0.0692	1002.32	1002.3	1002.27	1002.25	1002.22	1002.19	1002.15	1002.12	1002.07	1002.03
m1 = 0.0808	1002.71	1002.7	1002.67	1002.64	1002.61	1002.59	1002.55	1002.5	1002.46	1002.41
m1 = 0.1014	1003.42	1003.4	1003.37	1003.35	1003.31	1003.28	1003.25	1003.2	1003.16	1003.11
m1 = 0.1196	1004.08	1004.06	1004.03	1004	1003.97	1003.94	1003.9	1003.86	1003.81	1003.76
m1 = 0.1326	1004.49	1004.47	1004.44	1004.41	1004.38	1004.35	1004.31	1004.26	1004.21	1004.16
m1 = 0.1555	1005.24	1005.21	1005.19	1005.15	1005.12	1005.09	1005.04	1005	1004.95	1004.9
m1 = 0.1568	1005.37	1005.35	1005.32	1005.29	1005.25	1005.22	1005.18	1005.13	1005.08	1005.03
m1 = 0.1835	1006.18	1006.15	1006.12	1006.09	1006.05	1006.02	1005.98	1005.93	1005.88	1005.83
m1 = 0.2076	1006.97	1006.94	1006.91	1006.87	1006.83	1006.8	1006.75	1006.7	1006.65	1006.6
m1 = 0.2212	1007.63	1007.6	1007.57	1007.53	1007.5	1007.46	1007.41	1007.36	1007.31	1007.26
